Measurements published in ChEMBL document CHEMBL4024747, “Design, Synthesis, and Biological Activities of Vibsanin B Derivatives: A New Class of HSP90 C-Terminal Inhibitors” (J Med Chem, 2017).
pIC50: −log10 of the molar value. Calls of active or inactive are those of the source. The rule behind the calls is not given here.

Tests used:
Assay type in all cases: functional, cell-based
A549 = test: Antiproliferative activity against human A549 cells assessed as reduction in cell viability after 48 hrs by MTT assay; conditions: for pIC50: A549, 48 h
SW480 = test: Antiproliferative activity against human SW480 cells assessed as reduction in cell viability after 48 hrs by MTT assay; conditions: for pIC50: SW480, 48 h
HL-60 = test: Antiproliferative activity against human HL60 cells assessed as reduction in cell viability after 48 hrs by MTT assay; conditions: for pIC50: HL-60, 48 h
SMMC-7721 = test: Antiproliferative activity against human SMMC7721 cells assessed as reduction in cell viability after 48 hrs by MTT assay; conditions: for pIC50: SMMC-7721, 48 h
MCF7 = test: Antiproliferative activity against human MCF7 cells assessed as reduction in cell viability after 48 hrs by MTT assay; conditions: MCF7, 48 h

Compound | pIC50 (A549) | pIC50 (SW480) | pIC50 (HL-60) | pIC50 (SMMC-7721) | pIC50 (MCF7) | Activity (A549) | Activity (SW480) | Activity (HL-60) | Activity (SMMC-7721)
CC(=O)O[C@@H]1/C=C/[C@@](C)(CCC=C(C)C)C/C=C(/CO)C(=O)/C=C/[C@@]1(C)O | 5.06 | 5.31 | 5.30 | 5.01 | 5.10 | – | – | – | –
CC(C)=CCC[C@]1(C)/C=C/[C@@H](OC(=O)C=C(C)C)[C@](C)(O)/C=C/C(=O)/C(CO[Si](c2ccccc2)(c2ccccc2)C(C)(C)C)=C\C1 | 4.89 | 4.68 | 4.84 | 4.42 | 4.80 | – | – | – | –
CC(C)=CCC[C@]1(C)/C=C/[C@@H](OC(=O)C=C(C)C)[C@](C)(O)CCC(=O)/C(CO)=C\C1 | < 4.40 | < 4.40 | < 4.40 | < 4.40 | < 4.40 | – | – | – | –
CCCC(=O)O[C@@H]1/C=C/[C@@](C)(CCC=C(C)C)C/C=C(/CO)C(=O)/C=C/[C@@]1(C)O | 5.39 | 5.60 | 5.38 | 5.11 | 5.22 | – | – | – | –
CC(C)=CCC[C@]1(C)/C=C/[C@@H](OC(=O)C=C(C)C)[C@](C)(O)/C=C/C(=O)/C(C=O)=C\C1 | – | – | – | – | 4.90 | Active | Active | Active | Active
CC(C)=CCC[C@]1(C)/C=C/[C@@H](OC(=O)C=C(C)C)[C@](C)(O)/C=C/C(=O)/C(CN=[N+]=[N-])=C\C1 | 5.76 | 5.37 | 6.04 | 5.51 | 5.31 | – | – | – | –
CO[C@]1(C)/C=C/C(=O)/C(CO)=C\C[C@](C)(CCC=C(C)C)/C=C/[C@H]1OC(=O)C=C(C)C | 4.84 | 4.82 | 4.84 | 4.80 | 4.85 | – | – | – | –
CC(C)=CCC[C@](C)(/C=C/[C@@H](OC(=O)C=C(C)C)[C@](C)(O)/C=C/C(=O)/C=C/N1CCOCC1)CC=O | 5.06 | 5.01 | 5.39 | 5.13 | 4.91 | – | – | – | –
CC(C)=CCC[C@]1(C)/C=C/[C@@H](OC(=O)C=C(C)C)[C@](C)(O)/C=C/C(=O)/C(C(=O)N2CCOCC2)=C\C1 | 5.78 | 5.55 | 5.49 | 5.43 | 5.47 | – | – | – | –
CC(C)=CCC[C@]1(C)/C=C/[C@@H](OC(=O)C=C(C)C)[C@](C)(O)/C=C/C(O)/C(C=O)=C\C1 (stereo not given in full) | 6.24 | 5.84 | 6.62 | 6.14 | 5.63 | – | – | – | –
CC(C)=CCC[C@]1(C)/C=C/[C@@H](OC(=O)C=C(C)C)[C@](C)(O)/C=C/C(=O)/C(C(=O)N2CCN(C)CC2)=C\C1 | 5.07 | 5.34 | 5.26 | 4.93 | 5.20 | – | – | – | –
CC(=O)OC/C1=C/C[C@](C)(CCC=C(C)C)/C=C/[C@@H](OC(=O)C=C(C)C)[C@](C)(O)/C=C/C1=O | 5.33 to 5.53 | 5.33 to 5.53 | 5.33 to 5.53 | 5.33 to 5.53 | 5.35 | – | – | – | –
CO[C@@H]1/C=C/[C@@](C)(O)[C@H](OC(=O)C=C(C)C)/C=C/[C@@](C)(CCC=C(C)C)C/C=C\1CO | 4.95 | 4.89 | 4.86 | 4.41 | 4.48 | – | – | – | –
CC(C)=CCC[C@]1(C)/C=C/[C@@H](OC(=O)C=C(C)C)[C@](C)(O)/C=C/C(=O)/C(C(=O)N(C)C)=C\C1 | 5.57 | 5.48 | 5.48 | 5.44 | 5.44 | – | – | – | –
CC(C)=CCC[C@]1(C)/C=C/[C@@H](OC(=O)C(C)C)[C@](C)(O)/C=C/C(=O)/C(CO)=C\C1 | 4.97 | 5.07 | 5.40 | 4.98 | 4.93 | – | – | – | –
CC(C)=CCC[C@](C)(/C=C/[C@@H](OC(=O)C=C(C)C)[C@](C)(O)/C=C/C(=O)/C=C/N1CCN(C)CC1)CC=O | 5.58 | 4.91 | 5.97 | 5.51 | 5.05 | – | – | – | –
CC(C)=CCC[C@]1(C)/C=C/[C@@H](OC(=O)C=C(C)C)[C@](C)(O)/C=C/C(=O)/C(CO[Si](C)(C)C(C)(C)C)=C\C1 | 5.38 | 5.47 | 5.56 | 5.40 | 5.22 | – | – | – | –
CC(C)=CCC[C@]1(C)/C=C/[C@@H](OC(=O)c2ccccc2)[C@](C)(O)/C=C/C(=O)/C(CO)=C\C1 | 4.80 | 4.99 | 4.65 | 4.69 | 4.57 | – | – | – | –
COC/C1=C/C[C@](C)(CCC=C(C)C)/C=C/[C@@H](OC(=O)C=C(C)C)[C@](C)(O)/C=C/C1=O | 5.40 | 5.41 | 5.51 | 4.96 | 5.38 | – | – | – | –
CSC(=S)OC/C1=C/C[C@](C)(CCC=C(C)C)/C=C/[C@@H](OC(=O)C=C(C)C)[C@](C)(O)/C=C/C1=O | 6.42 | 6.41 | 6.74 | 6.14 | 6.05 | – | – | – | –
